Experimental data taken from PubChem BioAssay (NCI).
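These data come from cells grown in 96-well plates and exposed to compound for 48 hours at five concentrations. At the GI50, growth is halved. TGI: concentration producing complete growth inhibition.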

Assays:
Test in all cases: inhibition of tumour cell growth, NCI panel, 48 h
OVCAR-8 ovarian = tested on: OVCAR-8 ovarian
DU-145 prostate = tested on: DU-145 prostate
SNB-75 CNS = tested on: SNB-75 CNS
EKVX NSCLC = tested on: EKVX NSCLC
HT29 colon = tested on: HT29 colon
NCI-H23 lung = tested on: NCI-H23 lung
CCRF-CEM leukemia = tested on: CCRF-CEM leukemia
NCI-H226 lung = tested on: NCI-H226 lung
SR leukemia = tested on: SR leukemia
SNB-19 CNS = tested on: SNB-19 CNS
M14 melanoma = tested on: M14 melanoma
SK-MEL-5 melanoma = tested on: SK-MEL-5 melanoma
SF-539 CNS = tested on: SF-539 CNS
COLO 205 colon = tested on: COLO 205 colon
SN12C renal = tested on: SN12C renal
SK-MEL-28 melanoma = tested on: SK-MEL-28 melanoma
NCI/ADR-RES ovarian = tested on: NCI/ADR-RES ovarian
K-562 leukemia = tested on: K-562 leukemia
HL-60(TB) leukemia = tested on: HL-60(TB) leukemia
OVCAR-4 ovarian = tested on: OVCAR-4 ovarian
LOX IMVI melanoma = tested on: LOX IMVI melanoma
OVCAR-5 ovarian = tested on: OVCAR-5 ovarian
ACHN renal = tested on: ACHN renal
HCT-15 colon = tested on: HCT-15 colon
BT-549 breast = tested on: BT-549 breast
MCF7 breast = tested on: MCF7 breast
RXF 393 renal = tested on: RXF 393 renal
SW-620 colon = tested on: SW-620 colon
MOLT-4 leukemia = tested on: MOLT-4 leukemia
HOP-92 NSCLC = tested on: HOP-92 NSCLC
SF-295 CNS = tested on: SF-295 CNS
HS 578T breast = tested on: HS 578T breast
CAKI-1 renal = tested on: CAKI-1 renal
NCI-H522 lung = tested on: NCI-H522 lung
MALME-3M melanoma = tested on: MALME-3M melanoma
T-47D breast = tested on: T-47D breast
IGROV1 ovarian = tested on: IGROV1 ovarian
KM12 colon = tested on: KM12 colon
SK-MEL-2 melanoma = tested on: SK-MEL-2 melanoma
RPMI-8226 leukemia = tested on: RPMI-8226 leukemia
786-0 renal = tested on: 786-0 renal
OVCAR-3 ovarian = tested on: OVCAR-3 ovarian
MDA-MB-435 = tested on: MDA-MB-435
UO-31 renal = tested on: UO-31 renal
UACC-62 melanoma = tested on: UACC-62 melanoma
HCT-116 colon = tested on: HCT-116 colon
A549 NSCLC = tested on: A549 NSCLC
SF-268 CNS = tested on: SF-268 CNS
PC-3 prostate = tested on: PC-3 prostate
HOP-62 NSCLC = tested on: HOP-62 NSCLC
MDA-MB-231 breast = tested on: MDA-MB-231 breast
UACC-257 melanoma = tested on: UACC-257 melanoma
TK-10 renal = tested on: TK-10 renal
NCI-H460 lung = tested on: NCI-H460 lung
U251 CNS = tested on: U251 CNS

## COc1cc(S(=O)(=O)Nc2ccc(-c3csc(/N=C\c4cccc(Oc5ccccc5)c4)n3)cc2)ccc1Cl
OVCAR-8 ovarian
  TGI: 61.9 µM
DU-145 prostate
  TGI: 61.7 µM
SNB-75 CNS
  TGI: 80.1 µM
EKVX NSCLC
  TGI: 81.4 µM
HT29 colon
  TGI: > 100 µM
NCI-H23 lung
  TGI: > 100 µM
CCRF-CEM leukemia
  TGI: > 100 µM
NCI-H226 lung
  TGI: > 100 µM
SR leukemia
  TGI: 81.9 µM
SNB-19 CNS
  TGI: > 100 µM
M14 melanoma
  TGI: > 100 µM
SK-MEL-5 melanoma
  TGI: > 100 µM
SF-539 CNS
  TGI: > 100 µM
COLO 205 colon
  TGI: > 100 µM
SN12C renal
  TGI: 96.7 µM
SK-MEL-28 melanoma
  TGI: > 100 µM
NCI/ADR-RES ovarian
  TGI: > 100 µM
K-562 leukemia
  TGI: 77 µM
HL-60(TB) leukemia
  TGI: 57.6 µM
OVCAR-4 ovarian
  TGI: > 100 µM
LOX IMVI melanoma
  TGI: 39 µM
OVCAR-5 ovarian
  TGI: > 100 µM
ACHN renal
  TGI: 71.8 µM
HCT-15 colon
  TGI: > 100 µM
BT-549 breast
  TGI: 93.1 µM
MCF7 breast
  TGI: 21.1 µM
RXF 393 renal
  TGI: 49.4 µM
SW-620 colon
  TGI: > 100 µM
MOLT-4 leukemia
  TGI: > 100 µM
HOP-92 NSCLC
  TGI: 58.6 µM
SF-295 CNS
  TGI: > 100 µM
HS 578T breast
  TGI: > 100 µM
CAKI-1 renal
  TGI: > 100 µM
NCI-H522 lung
  TGI: 66.6 µM
MALME-3M melanoma
  TGI: > 100 µM
T-47D breast
  TGI: 34.4 µM
IGROV1 ovarian
  TGI: 64.2 µM
KM12 colon
  TGI: > 100 µM
SK-MEL-2 melanoma
  TGI: > 100 µM
RPMI-8226 leukemia
  TGI: 75.6 µM
786-0 renal
  TGI: > 100 µM
OVCAR-3 ovarian
  TGI: > 100 µM
MDA-MB-435
  TGI: > 100 µM
UO-31 renal
  TGI: > 100 µM
UACC-62 melanoma
  TGI: 25.1 µM
HCT-116 colon
  TGI: 92.6 µM
A549 NSCLC
  TGI: > 100 µM
SF-268 CNS
  TGI: > 100 µM
PC-3 prostate
  TGI: > 100 µM
HOP-62 NSCLC
  TGI: > 100 µM

## O=C(/C=C/c1cc(O)ccc1O)c1ccc(Cl)cc1
OVCAR-8 ovarian
  GI50: 57.2 µM
  TGI: > 100 µM
EKVX NSCLC
  GI50: 23.4 µM
  TGI: 54.7 µM
HT29 colon
  GI50: 54.4 µM
  TGI: > 100 µM
NCI-H23 lung
  GI50: 19.1 µM
  TGI: 43.3 µM
NCI-H226 lung
  GI50: 22.3 µM
  TGI: 66.8 µM
MDA-MB-231 breast
  GI50: 11.7 µM
  TGI: 43.5 µM
UACC-257 melanoma
  GI50: 51.3 µM
  TGI: > 100 µM
SNB-19 CNS
  GI50: 36.8 µM
  TGI: > 100 µM
M14 melanoma
  GI50: 19.8 µM
  TGI: 47.1 µM
SK-MEL-5 melanoma
  GI50: 55 µM
  TGI: > 100 µM
COLO 205 colon
  GI50: 38.2 µM
  TGI: > 100 µM
SN12C renal
  GI50: 18.1 µM
  TGI: 44.7 µM
SK-MEL-28 melanoma
  GI50: 60.4 µM
  TGI: > 100 µM
NCI/ADR-RES ovarian
  GI50: 19.6 µM
  TGI: 53.9 µM
K-562 leukemia
  GI50: 46.1 µM
  TGI: > 100 µM
LOX IMVI melanoma
  GI50: 18.4 µM
  TGI: 48.4 µM
OVCAR-5 ovarian
  GI50: 17.4 µM
  TGI: 38.7 µM
ACHN renal
  GI50: 25.2 µM
  TGI: > 100 µM
HCT-15 colon
  GI50: 28 µM
  TGI: > 100 µM
BT-549 breast
  GI50: 25.9 µM
  TGI: 51.8 µM
MCF7 breast
  GI50: 48.5 µM
  TGI: > 100 µM
RXF 393 renal
  GI50: > 100 µM
  TGI: > 100 µM
SW-620 colon
  GI50: 61.9 µM
  TGI: > 100 µM
TK-10 renal
  GI50: 31.6 µM
  TGI: > 100 µM
MOLT-4 leukemia
  GI50: > 100 µM
  TGI: > 100 µM
HOP-92 NSCLC
  GI50: > 100 µM
  TGI: > 100 µM
SF-295 CNS
  GI50: 35.3 µM
  TGI: > 100 µM
CAKI-1 renal
  GI50: 44 µM
  TGI: > 100 µM
NCI-H522 lung
  GI50: 61.8 µM
  TGI: > 100 µM
T-47D breast
  GI50: 36.5 µM
  TGI: > 100 µM
IGROV1 ovarian
  GI50: > 100 µM
  TGI: > 100 µM
KM12 colon
  GI50: 31.8 µM
  TGI: > 100 µM
SK-MEL-2 melanoma
  GI50: 60.7 µM
  TGI: > 100 µM
786-0 renal
  GI50: 17.8 µM
  TGI: 61 µM
OVCAR-3 ovarian
  GI50: 57.7 µM
  TGI: > 100 µM
MDA-MB-435
  GI50: 30 µM
  TGI: > 100 µM
UO-31 renal
  GI50: 96.7 µM
  TGI: > 100 µM
UACC-62 melanoma
  GI50: 17.5 µM
  TGI: 40.1 µM
HCT-116 colon
  GI50: 16.7 µM
  TGI: 41.6 µM
A549 NSCLC
  GI50: 31.8 µM
  TGI: > 100 µM
SF-268 CNS
  GI50: 20.7 µM
  TGI: > 100 µM
NCI-H460 lung
  GI50: 32.5 µM
  TGI: > 100 µM
U251 CNS
  GI50: 19.6 µM
  TGI: 51.2 µM
PC-3 prostate
  GI50: 90.4 µM
  TGI: > 100 µM
HOP-62 NSCLC
  GI50: 20.5 µM
  TGI: 52.2 µM
